Source: ChEMBL document CHEMBL1909046, “DrugMatrix in vitro pharmacology data”

Tests used:
Carbonic anhydrase 2 = Carbonic anhydrase 2 (Homo sapiens, UniProt P00918); assay: DRUGMATRIX: Carbonic Anhydrase II enzyme inhibition (substrate: 4-Nitrophenyl acetate (4-NPA)); assay type: tissue-based, Erythrocyte; details: erythrocyte; Not Active = under 50% inhibition at 10 µM
Cathepsin G = biological target: T1, Cathepsin G (Homo sapiens, UniProt P08311); assay type: tissue-based; details: neutrophil;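 note: inhibition of Cathepsin G enzyme activity, tested on an AMC-conjugated peptide substrate; in other assays of this panel Not Active means under 50% inhibition at 10 µM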
T1 sequence (P08311 whole entry): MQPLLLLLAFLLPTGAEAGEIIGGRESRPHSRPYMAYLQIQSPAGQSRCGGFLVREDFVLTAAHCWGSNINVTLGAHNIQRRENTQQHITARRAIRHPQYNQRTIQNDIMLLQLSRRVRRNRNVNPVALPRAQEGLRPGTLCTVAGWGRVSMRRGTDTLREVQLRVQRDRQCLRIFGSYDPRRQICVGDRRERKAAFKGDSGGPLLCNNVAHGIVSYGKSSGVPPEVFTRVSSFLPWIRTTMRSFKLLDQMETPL

[1] = biological target: Sodium-dependent dopamine transporter (Homo sapiens, UniProt Q01959); assay: DRUGMATRIX: Dopamine Transporter radioligand binding (ligand: [125I] RTI-55); assay type: cell membranes, CHO-K1, Membrane; details: cho-k1; Not Active = under 50% inhibition at 10 µM
[2] = biological target: Platelet-activating factor receptor (Homo sapiens, UniProt P25105); assay: biochemical; assay type: tissue-based; details: platelet; note: in other assays of this panel Not Active means under 50% inhibition at 10 µM
[3] = DRUGMATRIX: beta-Lactamase enzyme inhibition (substrate: Nitrocefin); set-up: species or system Bacillus cereus; details: Not Active = under 50% inhibition at 10 µM
[4] = DRUGMATRIX: Sigma2 radioligand binding (ligand: [3H] Ifenprodil); assay type: cell membranes, Rattus norvegicus, Wistar, Brain, Membrane; details: Not Active = under 50% inhibition at 10 µM
Leukotriene C4 synthase = biological target: T2, Leukotriene C4 synthase (Cavia porcellus, UniProt A6XA80); assay: biochemical; assay type: tissue-based, Lung;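 note: enzyme inhibition assay of leukotriene C4 synthase, using LTA4 as the substrate; in other assays of this panel Not Active means under 50% inhibition at 10 µM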
T2 sequence (A6XA80 whole entry): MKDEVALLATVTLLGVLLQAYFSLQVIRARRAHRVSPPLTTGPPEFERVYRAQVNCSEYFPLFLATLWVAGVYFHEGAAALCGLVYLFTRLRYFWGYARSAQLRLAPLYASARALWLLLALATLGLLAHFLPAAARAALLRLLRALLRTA

Melanocortin receptor 5 = Melanocortin receptor 5 (Homo sapiens, UniProt P33032); assay type: cell membranes, HEK293, Membrane; details: hek293; note: in other assays of this panel Not Active means under 50% inhibition at 10 µM
[5] = DRUGMATRIX: Tumor Necrosis Factor (TNF), Non-Selective radioligand binding (ligand: [125I] TNF-alpha); assay type: cell membranes, Membrane; details: u-937; Not Active = under 50% inhibition at 10 µM
[6] = biological target: T3, Nitric oxide synthase, inducible (Mus musculus, UniProt P29477); set-up: species or system Escherichia coli
T3 sequence (P29477 whole entry): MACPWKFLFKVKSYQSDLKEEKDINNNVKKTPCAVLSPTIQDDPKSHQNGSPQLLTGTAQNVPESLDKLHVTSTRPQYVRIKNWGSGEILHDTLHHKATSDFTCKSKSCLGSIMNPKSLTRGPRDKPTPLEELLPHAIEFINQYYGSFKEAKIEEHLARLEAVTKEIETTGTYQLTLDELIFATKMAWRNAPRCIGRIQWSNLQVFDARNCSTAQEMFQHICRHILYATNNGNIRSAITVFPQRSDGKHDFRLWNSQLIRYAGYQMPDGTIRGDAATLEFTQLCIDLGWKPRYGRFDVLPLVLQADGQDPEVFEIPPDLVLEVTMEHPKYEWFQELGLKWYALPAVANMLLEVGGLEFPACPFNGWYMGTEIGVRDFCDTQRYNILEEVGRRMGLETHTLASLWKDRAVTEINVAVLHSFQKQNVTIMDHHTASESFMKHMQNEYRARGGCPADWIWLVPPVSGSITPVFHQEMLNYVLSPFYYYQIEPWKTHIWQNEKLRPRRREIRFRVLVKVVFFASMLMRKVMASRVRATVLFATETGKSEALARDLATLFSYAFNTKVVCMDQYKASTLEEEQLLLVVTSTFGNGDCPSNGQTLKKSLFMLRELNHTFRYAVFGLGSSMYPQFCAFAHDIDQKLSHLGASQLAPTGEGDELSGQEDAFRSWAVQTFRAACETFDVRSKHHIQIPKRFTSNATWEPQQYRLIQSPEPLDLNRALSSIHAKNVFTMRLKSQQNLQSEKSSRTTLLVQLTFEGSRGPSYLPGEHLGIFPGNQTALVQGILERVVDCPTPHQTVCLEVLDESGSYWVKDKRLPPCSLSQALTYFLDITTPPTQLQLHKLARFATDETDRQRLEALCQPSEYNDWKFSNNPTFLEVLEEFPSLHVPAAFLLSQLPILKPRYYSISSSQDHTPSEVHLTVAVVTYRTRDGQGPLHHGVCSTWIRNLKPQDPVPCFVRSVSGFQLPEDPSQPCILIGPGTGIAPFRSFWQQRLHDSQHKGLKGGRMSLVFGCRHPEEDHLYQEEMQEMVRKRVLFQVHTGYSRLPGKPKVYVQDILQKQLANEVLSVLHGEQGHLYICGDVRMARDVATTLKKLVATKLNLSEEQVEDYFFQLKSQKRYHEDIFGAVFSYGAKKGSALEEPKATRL

Cannabinoid receptor 1 = Cannabinoid receptor 1 (Homo sapiens, UniProt P21554); assay type: cell membranes, Membrane; details: chem-1; note: in other assays of this panel Not Active means under 50% inhibition at 10 µM
B2 bradykinin receptor = biological target: T4, B2 bradykinin receptor (Homo sapiens, UniProt P30411); assay type: cell membranes, Membrane; details: chem-1; note: in other assays of this panel Not Active means under 50% inhibition at 10 µM
T4 sequence (P30411 whole entry): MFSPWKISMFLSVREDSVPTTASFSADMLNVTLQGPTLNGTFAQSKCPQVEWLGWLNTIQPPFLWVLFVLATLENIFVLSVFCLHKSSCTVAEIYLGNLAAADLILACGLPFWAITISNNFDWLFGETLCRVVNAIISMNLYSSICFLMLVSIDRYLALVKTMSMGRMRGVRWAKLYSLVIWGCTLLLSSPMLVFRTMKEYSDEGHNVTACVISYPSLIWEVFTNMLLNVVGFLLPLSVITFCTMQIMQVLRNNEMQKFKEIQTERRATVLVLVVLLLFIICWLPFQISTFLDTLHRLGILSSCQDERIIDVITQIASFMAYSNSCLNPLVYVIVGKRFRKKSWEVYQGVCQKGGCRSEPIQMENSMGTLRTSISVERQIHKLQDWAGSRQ

Cannabinoid receptor 1, sequence (P21554 whole entry): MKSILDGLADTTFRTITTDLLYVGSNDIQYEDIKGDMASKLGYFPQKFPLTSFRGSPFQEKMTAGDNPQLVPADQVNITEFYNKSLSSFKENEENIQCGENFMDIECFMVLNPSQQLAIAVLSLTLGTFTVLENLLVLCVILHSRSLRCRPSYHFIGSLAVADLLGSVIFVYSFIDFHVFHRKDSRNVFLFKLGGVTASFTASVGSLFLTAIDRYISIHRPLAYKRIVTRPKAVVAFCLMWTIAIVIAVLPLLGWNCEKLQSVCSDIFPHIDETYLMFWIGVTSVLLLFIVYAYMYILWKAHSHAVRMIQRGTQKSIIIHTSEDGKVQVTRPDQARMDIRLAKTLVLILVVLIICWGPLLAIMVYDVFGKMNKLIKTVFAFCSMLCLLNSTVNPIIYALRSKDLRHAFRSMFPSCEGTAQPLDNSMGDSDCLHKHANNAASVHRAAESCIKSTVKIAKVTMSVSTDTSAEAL
Sodium-dependent dopamine transporter, sequence (Q01959 whole entry): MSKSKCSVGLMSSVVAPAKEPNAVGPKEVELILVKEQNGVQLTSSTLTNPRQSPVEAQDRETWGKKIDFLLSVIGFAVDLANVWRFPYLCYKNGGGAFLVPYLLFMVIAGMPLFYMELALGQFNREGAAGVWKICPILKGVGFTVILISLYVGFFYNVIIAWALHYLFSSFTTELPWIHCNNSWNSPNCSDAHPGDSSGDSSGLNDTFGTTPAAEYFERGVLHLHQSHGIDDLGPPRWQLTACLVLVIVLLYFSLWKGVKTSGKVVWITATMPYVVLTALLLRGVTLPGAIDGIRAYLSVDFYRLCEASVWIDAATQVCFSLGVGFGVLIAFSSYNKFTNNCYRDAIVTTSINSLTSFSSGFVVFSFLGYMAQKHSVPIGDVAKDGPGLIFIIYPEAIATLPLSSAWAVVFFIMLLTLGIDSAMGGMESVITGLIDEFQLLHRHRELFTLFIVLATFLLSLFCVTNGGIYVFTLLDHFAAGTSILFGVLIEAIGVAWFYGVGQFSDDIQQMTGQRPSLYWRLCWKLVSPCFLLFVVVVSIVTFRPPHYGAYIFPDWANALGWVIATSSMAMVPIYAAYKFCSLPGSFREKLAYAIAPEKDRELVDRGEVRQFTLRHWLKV
Platelet-activating factor receptor, sequence (P25105 whole entry): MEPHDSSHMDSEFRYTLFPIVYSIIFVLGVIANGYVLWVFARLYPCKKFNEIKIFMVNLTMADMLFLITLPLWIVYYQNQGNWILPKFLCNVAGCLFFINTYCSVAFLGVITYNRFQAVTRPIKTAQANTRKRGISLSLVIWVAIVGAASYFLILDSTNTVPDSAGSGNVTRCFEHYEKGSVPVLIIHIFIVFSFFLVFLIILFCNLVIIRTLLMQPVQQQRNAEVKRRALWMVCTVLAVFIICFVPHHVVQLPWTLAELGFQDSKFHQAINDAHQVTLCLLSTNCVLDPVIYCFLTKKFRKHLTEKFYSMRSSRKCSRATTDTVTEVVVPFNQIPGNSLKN
Melanocortin receptor 5, sequence (P33032 whole entry): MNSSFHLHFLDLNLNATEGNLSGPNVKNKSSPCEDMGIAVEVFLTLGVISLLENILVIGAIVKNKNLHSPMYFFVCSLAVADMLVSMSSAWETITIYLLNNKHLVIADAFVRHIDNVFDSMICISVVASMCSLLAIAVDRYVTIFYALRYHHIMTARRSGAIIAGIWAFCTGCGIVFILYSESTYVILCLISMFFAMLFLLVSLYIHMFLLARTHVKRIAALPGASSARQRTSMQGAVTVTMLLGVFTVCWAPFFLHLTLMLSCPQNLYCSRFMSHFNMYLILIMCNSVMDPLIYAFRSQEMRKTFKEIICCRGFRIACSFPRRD

CC(C)NC[C@H](O)COc1cccc2[nH]ccc12
Not Active: IC50 (Carbonic anhydrase 2) | IC50 (Cathepsin G) | IC50 [1] | IC50 [2] | IC50 [3] | Ki [3] | IC50 [4] | Ki [4] | IC50 (Leukotriene C4 synthase) | IC50 (Melanocortin receptor 5) | IC50 [5] | Ki [5] | IC50 [6] | IC50 (Cannabinoid receptor 1) | IC50 (B2 bradykinin receptor)

CCCSc1ccc2nc(NC(=O)OC)[nH]c2c1 [ALBENDAZOLE]
Not Active: IC50 (Carbonic anhydrase 2) | IC50 (Cathepsin G) | IC50 [1] | IC50 [2] | IC50 [3] | Ki [3] | IC50 [4] | Ki [4] | IC50 (Leukotriene C4 synthase) | IC50 (Melanocortin receptor 5) | IC50 [5] | Ki [5] | IC50 [6] | IC50 (Cannabinoid receptor 1) | IC50 (B2 bradykinin receptor)

C=C1C(=O)O[C@@H]2C3O[C@]3(C)CC/C=C(\C)CC[C@@H]12 (stereo not given in full)
Not Active: IC50 (Carbonic anhydrase 2) | IC50 (Cathepsin G) | IC50 [1] | IC50 [2] | IC50 [3] | Ki [3] | IC50 [4] | Ki [4] | IC50 (Leukotriene C4 synthase) | IC50 (Melanocortin receptor 5) | IC50 [5] | Ki [5] | IC50 [6] | IC50 (Cannabinoid receptor 1) | IC50 (B2 bradykinin receptor)

CN1C(C(=O)Nc2ccccn2)=C(O)c2ccccc2S1(=O)=O [PIROXICAM]
Not Active: IC50 (Carbonic anhydrase 2) | IC50 (Cathepsin G) | IC50 [1] | IC50 [2] | IC50 [3] | Ki [3] | IC50 [4] | Ki [4] | IC50 (Leukotriene C4 synthase) | IC50 (Melanocortin receptor 5) | IC50 [5] | Ki [5] | IC50 [6] | IC50 (Cannabinoid receptor 1) | IC50 (B2 bradykinin receptor)

COc1c(N2CCNC(C)C2)c(F)cc2c(=O)c(C(=O)O)cn(C3CC3)c12 (stereo not given) [GATIFLOXACIN]
Not Active: IC50 (Carbonic anhydrase 2) | IC50 (Cathepsin G) | IC50 [1] | IC50 [2] | IC50 [3] | Ki [3] | IC50 [4] | Ki [4] | IC50 (Leukotriene C4 synthase) | IC50 (Melanocortin receptor 5) | IC50 [5] | Ki [5] | IC50 [6] | IC50 (Cannabinoid receptor 1) | IC50 (B2 bradykinin receptor)

CC(/C=C1\SC(=S)N(CC(=O)O)C1=O)=C\c1ccccc1
Not Active: IC50 (Carbonic anhydrase 2) | IC50 (Cathepsin G) | IC50 [1] | IC50 [2] | IC50 [3] | Ki [3] | IC50 [4] | Ki [4] | IC50 (Leukotriene C4 synthase) | IC50 (Melanocortin receptor 5) | IC50 [5] | Ki [5] | IC50 [6] | IC50 (Cannabinoid receptor 1) | IC50 (B2 bradykinin receptor)

OCc1ccccc1 [BENZYL ALCOHOL]
Not Active: IC50 (Carbonic anhydrase 2) | IC50 (Cathepsin G) | IC50 [1] | IC50 [2] | IC50 [3] | Ki [3] | IC50 [4] | Ki [4] | IC50 (Leukotriene C4 synthase) | IC50 (Melanocortin receptor 5) | IC50 [5] | Ki [5] | IC50 [6] | IC50 (Cannabinoid receptor 1) | IC50 (B2 bradykinin receptor)

CCCc1cc(=O)[nH]c(=S)[nH]1 [PROPYLTHIOURACIL]
Not Active: IC50 (Carbonic anhydrase 2) | IC50 (Cathepsin G) | IC50 [1] | IC50 [2] | IC50 [3] | Ki [3] | IC50 [4] | Ki [4] | IC50 (Leukotriene C4 synthase) | IC50 (Melanocortin receptor 5) | IC50 [5] | Ki [5] | IC50 [6] | IC50 (Cannabinoid receptor 1) | IC50 (B2 bradykinin receptor)

N#C[C@H](O[C@@H]1O[C@H](CO[C@@H]2O[C@H](CO)[C@@H](O)[C@H](O)[C@H]2O)[C@@H](O)[C@H](O)[C@H]1O)c1ccccc1 [AMYGDALIN]
Not Active: IC50 (Carbonic anhydrase 2) | IC50 (Cathepsin G) | IC50 [1] | IC50 [2] | IC50 [3] | Ki [3] | IC50 [4] | Ki [4] | IC50 (Leukotriene C4 synthase) | IC50 (Melanocortin receptor 5) | IC50 [5] | Ki [5] | IC50 [6] | IC50 (Cannabinoid receptor 1) | IC50 (B2 bradykinin receptor)

O=P1(NCCCl)OCCCN1CCCl (stereo not given) [IFOSFAMIDE]
Not Active: IC50 (Carbonic anhydrase 2) | IC50 (Cathepsin G) | IC50 [1] | IC50 [2] | IC50 [3] | Ki [3] | IC50 [4] | Ki [4] | IC50 (Leukotriene C4 synthase) | IC50 (Melanocortin receptor 5) | IC50 [5] | Ki [5] | IC50 [6] | IC50 (Cannabinoid receptor 1) | IC50 (B2 bradykinin receptor)
